Data reported in patent publication US9549921B2, “Heterocyclic compounds and methods of use thereof for the treatment of hepatitis C” (priority 2014, dated 2017).
pIC50: −log10 of the molar value. Where two headings read alike, the source gives them in different places.

How the values were obtained:
HCV replicon genotype 1a = experiment: HCV replicon assay, genotype 1a (cell ELISA for NS3/4A); type: cell-based, hepatitis C virus; conditions: for IC50: Hepatitis C virus, 96 h, read-out: 1a IC50 (nM), HCV genotype 1a replicon cells, 96 hours incubation, NS3/4A ELISA readout, % of DMSO control; for pIC50: read-out: 1a IC50, HCV genotype 1a replicon cells, 96 hours incubation, NS3/4A ELISA readout, % of DMSO control
Method in brief: (§1)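 Readout is NS3/4A protein level from an antibody-based cell ELISA, serving as an indirect measure of replicon RNA; IC50 fitted with a four-parameter function relative to DMSO control. Replicon cells, kept under G418 beforehand, were plated with serial compound dilutions minus G418 for 96 hours.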

HCV replicon genotype 1b = experiment: HCV replicon assay, genotype 1b (cell ELISA for NS3/4A); type: cell-based, hepatitis C virus; conditions: for IC50: Hepatitis C virus, 96 h, read-out: 1b IC50 (nM), HCV genotype 1b replicon cells, 96 hours incubation, NS3/4A ELISA readout, % of DMSO control
Method in brief: as §1

Compound	IC50 (HCV replicon genotype 1a)	IC50 (HCV replicon genotype 1b)	pIC50 (HCV replicon genotype 1a)	pIC50 (HCV replicon genotype 1b; read-out: 1b IC50, HCV genotype 1b replicon cells, 96 hours incubation, NS3/4A ELISA readout, % of DMSO control)
CNC(=O)c1c(-c2ccc(F)cc2)oc2cc(N(C)S(C)(=O)=O)c([C@H]3CCCN(C(=O)Cc4ccc5nccnc5c4)C3)cc12 [Example 95, 2-(4-fluorophenyl)-N-methyl-6-[methyl(methylsulfonyl)amino]-5-[(3R)-1-(quinoxalin-6-ylacetyl)piperidin-3-yl]-1-benzofuran-3-carboxamide]	176 nM	106 nM		
CNC(=O)c1c(-c2ccc(F)cc2)oc2cc(N(C)S(C)(=O)=O)c([C@@H]3CCCN(C(=O)C=C(C)C)C3)cc12 [Example 63, 2-(4-fluorophenyl)-N-methyl-5-[1-(3-methylbut-2-enoyl)piperidin-3-yl]-6-[methyl(methylsulfonyl)amino]-1-benzofuran-3-carboxamide]	156 nM	68.1 nM		
CNC(=O)c1c(-c2ccc(F)cc2)oc2cc(N(C)S(C)(=O)=O)c([C@H]3CCCN(C(=O)[C@@H](NC(=O)OC(C)(C)C)c4ccccc4F)C3)cc12 [Example 94, tert-butyl {(1S)-1-(2-fluorophenyl)-2-[(3R)-3-{2-(4-fluorophenyl)-3-(methylcarbamoyl)-6-[methyl(methylsulfonyl)amino]-1-benzofuran-5-yl}piperidin-1-yl]-2-oxoethyl}carbamate]	300 nM	168 nM		
CNC(=O)c1c(-c2ccc(F)cc2)oc2cc(N(C)S(C)(=O)=O)c([C@H]3CCCN(S(=O)(=O)c4cc5cccc(F)c5[nH]4)C3)cc12 [Example 3, (R)-5-(1-((7-fluoro-1H-indol-2-yl)sulfonyl)piperidin-3-yl)-2-(4-fluorophenyl)-N-methyl-6-(N-methylmethylsulfonamido)benzofuran-3-carboxamide]	148 nM	109 nM		
CNC(=O)c1c(-c2ccc(F)cc2)oc2cc(N(C)S(C)(=O)=O)c([C@@H]3CCCN(C(=O)c4cc5cccc(OC)c5[nH]4)C3)cc12 (single isomer, unassigned) [Example 41, 2-(4-fluorophenyl)-5-(1-(7-methoxy-1H-indole-2-carbonyl)piperidin-3-yl)-N-methyl-6-(N-methylmethylsulfonamido)benzofuran-3-carboxamide]		13.5 nM	7.51	
CNC(=O)c1c(-c2ccc(F)cc2)oc2cc(N(C)S(C)(=O)=O)c([C@H]3CCCN(S(=O)(=O)c4cccc(C)c4)C3)cc12 [Example 142, 2-(4-fluorophenyl)-N-methyl-6-[methyl(methylsulfonyl)amino]-5-{(3R)-1-[(3-methylphenyl)sulfonyl]piperidin-3-yl}-1-benzofuran-3-carboxamide]	198 nM	91.7 nM		
CNC(=O)c1c(-c2ccc(F)cc2)oc2cc(N(C)S(C)(=O)=O)c([C@H]3CCCN(S(=O)(=O)C4CCCCC4)C3)cc12 [Example 132, 5-[(3R)-1-(cyclohexylsulfonyl)piperidin-3-yl]-2-(4-fluorophenyl)-N-methyl-6-[methyl(methylsulfonyl)amino]-1-benzofuran-3-carboxamide]	93.3 nM	56.1 nM		
CNC(=O)c1c(-c2ccc(F)cc2)oc2cc(N(C)S(C)(=O)=O)c([C@@H]3CCCN(C(=O)C4C5COCC54)C3)cc12 (stereo in doubt) [Example 59, 2-(4-fluorophenyl)-N-methyl-6-[methyl(methylsulfonyl)amino]-5-[1-(3-oxabicyclo[3.1.0]hex-6-ylcarbonyl)piperidin-3-yl]-1-benzofuran-3-carboxamide]	308 nM	120 nM		
CNC(=O)c1c(-c2ccc(F)cc2)oc2cc(N(C)S(C)(=O)=O)c([C@H]3CCCN(C(=O)c4cn5c(Br)cccc5n4)C3)cc12 [Example 103, 5-{(3R)-1-[(5-bromoimidazo[1,2-a]pyridin-2-yl)carbonyl]piperidin-3-yl}-2-(4-fluorophenyl)-N-methyl-6-[methyl(methylsulfonyl)amino]-1-benzofuran-3-carboxamide]	212 nM	110 nM		
CNC(=O)c1c(-c2ccc(F)cc2)oc2cc(N(C)S(C)(=O)=O)c([C@H]3CCCN(c4nc5c(C#N)cccc5o4)C3)cc12 [Example 4, (R)-5-(1-(4-cyanobenzo[d]oxazol-2-yl)piperidin-3-yl)-2-(4-fluorophenyl)-N-methyl-6-(N-methylmethylsulfonamido)benzofuran-3-carboxamide]	7.03 nM	6.53 nM		
CNC(=O)c1c(-c2ccc(F)cc2)oc2cc(N(C)S(C)(=O)=O)c([C@H]3CCCN(C(=O)c4nn(CC5CC5)c5ccccc45)C3)cc12 [Example 100, 5-[(3R)-1-{[1-(cyclopropylmethyl)-1H-indazol-3-yl]carbonyl}piperidin-3-yl]-2-(4-fluorophenyl)-N-methyl-6-[methyl(methylsulfonyl)amino]-1-benzofuran-3-carboxamide]	65 nM	20.4 nM		
CNC(=O)c1c(-c2ccc(F)cc2)oc2cc(N(C)S(C)(=O)=O)c([C@@H]3CCCN(C(=O)c4[nH]c5c(F)cccc5c4C)C3)cc12 [Example 37, (S)-5-(1-(7-fluoro-3-methyl-1H-indole-2-carbonyl)piperidin-3-yl)-2-(4-fluorophenyl)-N-methyl-6-(N-methylmethylsulfonamido)benzofuran-3-carboxamide]	162 nM	92.8 nM		
CNC(=O)c1c(-c2ccc(F)cc2)oc2cc(N(C)S(C)(=O)=O)c([C@@H]3CCCN(S(=O)(=O)Cc4ccncc4)C3)cc12 [Example 109, 2-(4-fluorophenyl)-N-methyl-6-[methyl(methylsulfonyl)amino]-5-{(3S)-1-[(pyridin-4-ylmethyl)sulfonyl]piperidin-3-yl}-1-benzofuran-3-carboxamide]	104 nM	26.2 nM		
CNC(=O)c1c(-c2ccc(F)cc2)oc2cc(N(C)S(C)(=O)=O)c([C@@H]3CCCN(c4ncc(-c5ccc(F)cc5)o4)C3)cc12 (single isomer, unassigned) [Example 57, 2-(4-fluorophenyl)-5-(1-(5-(4-fluorophenyl)oxazol-2-yl)piperidin-3-yl)-N-methyl-6-(N-methylmethylsulfonamido)benzofuran-3-carboxamide]		22.2 nM	7.70	
CNC(=O)c1c(-c2ccc(F)cc2)oc2cc(N(C)S(C)(=O)=O)c([C@H]3CCCN(C(=O)c4c[nH]c5cc(F)ccc45)C3)cc12 [Example 102, 5-{(3R)-1-[(6-fluoro-1H-indol-3-yl)carbonyl]piperidin-3-yl}-2-(4-fluorophenyl)-N-methyl-6-[methyl(methylsulfonyl)amino]-1-benzofuran-3-carboxamide]	345 nM	295 nM		
CNC(=O)c1c(-c2ccc(F)cc2)oc2cc(N(C)S(C)(=O)=O)c([C@H]3CN(C(=O)c4cc5c(F)cccc5n4C)CCO3)cc12 (single isomer, unassigned) [Example 8, 5-(4-(4-fluoro-1-methyl-1H-indole-2-carbonyl)morpholin-2-yl)-2-(4-fluorophenyl)-N-methyl-6-(N-methylmethylsulfonamido)benzofuran-3-carboxamide]	28.2 nM	36.9 nM		
CNC(=O)c1c(-c2ccc(F)cc2)oc2cc(N(C)S(C)(=O)=O)c([C@@H]3CCCN(C(=O)Cc4ccc(F)cn4)C3)cc12 (stereo in doubt) [Example 70, 2-(4-fluorophenyl)-5-{1-[(5-fluoropyridin-2-yl)acetyl]piperidin-3-yl}-N-methyl-6-[methyl(methylsulfonyl)amino]-1-benzofuran-3-carboxamide]	207 nM	67.9 nM		
CCn1c(C(=O)N2CCC[C@@H](c3cc4c(C(=O)NC)c(-c5ccc(F)cc5)oc4cc3N(C)S(C)(=O)=O)C2)cc2c(F)cccc21 [Example 33, (S)-5-(1-(1-ethyl-4-fluoro-1H-indole-2-carbonyl)piperidin-3-yl)-2-(4-fluorophenyl)-N-methyl-6-(N-methylmethylsulfonamido)benzofuran-3-carboxamide]	130 nM	196 nM		
CNC(=O)c1c(-c2ccc(F)cc2)oc2cc(N(C)S(C)(=O)=O)c([C@H]3CN(C(=O)c4cc5cccc(F)c5[nH]4)CCO3)cc12 (single isomer, unassigned) [Example 7, 5-(4-(7-fluoro-1H-indole-2-carbonyl)morpholin-2-yl)-2-(4-fluorophenyl)-N-methyl-6-(N-methylmethylsulfonamido)benzofuran-3-carboxamide]			8.24	7.94
CNC(=O)c1c(-c2ccc(F)cc2)oc2cc(N(C)S(C)(=O)=O)c([C@@H]3CCCN(S(=O)(=O)c4cccc(F)c4)C3)cc12 [Example 114, 2-(4-fluorophenyl)-5-{(3S)-1-[(3-fluorophenyl)sulfonyl]piperidin-3-yl}-N-methyl-6-[methyl(methylsulfonyl)amino]-1-benzofuran-3-carboxamide]	34.2 nM	8.2 nM		
CNC(=O)c1c(-c2ccc(F)cc2)oc2cc(N(C)S(C)(=O)=O)c([C@@H]3CCCN(c4nc5cc(F)ccc5o4)C3)cc12 (single isomer, unassigned) [Example 52]	32.6 nM	42.6 nM		
CNC(=O)c1c(-c2ccc(F)cc2)oc2cc(N(C)S(C)(=O)=O)c([C@@H]3CCCN(C(=O)[C@H](N)c4ccccc4F)C3)cc12 (single isomer, unassigned) [Example 29]	83.1 nM	148 nM		
CNC(=O)c1c(-c2ccc(F)cc2)oc2cc(N(C)S(C)(=O)=O)c([C@@H]3CCCN(S(=O)(=O)c4cccc(C)c4)C3)cc12 [Example 126, 2-(4-fluorophenyl)-N-methyl-6-[methyl(methylsulfonyl)amino]-5-{(3S)-1-[(3-methylphenyl)sulfonyl]piperidin-3-yl}-1-benzofuran-3-carboxamide]	46.9 nM	13.2 nM		
